# Patent publication US20090053721A1, “VOLTAGE-GATED ION CHANNEL MUTANTS FOR USE IN IDENTIFYING ION CHANNEL MODULATING COMPOUNDS” (CARDIOME PHARMA CORP., priority 2007, published 2009)
# Counter-ions that a name gives are not always drawn.
# What was measured:
# [1] = molecular target: T1, Kv1.5 V505A mutant channel (Homo sapiens, UniProt P22460, V505A); experiment: Voltage-dependence of block (Woodhull fit), V505A Kv1.5; format: cell-based
# T1 construct: subcloned as a fragment back into full-length Kv1.5; expressed in transfected cells; host or cells: HEK293, transient transfection
# Experimental: Coverslips with adherent cells plated on the surface were placed in a superfusion chamber (volume 300 μl) containing the control bath solution at 22° C. Whole-cell current recording and analysis were carried out using an Axopatch 200B amplifier and pClamp10 software (Axon Instruments, CA, USA). Patch electrodes were pulled from thin-walled borosilicate glass (World Precision Instruments, FL, USA) on a horizontal micropipette puller (Sutter Instruments, CA, USA). […] Analogue capacity compensation and 80% series resistance compensation were used during whole cell measurements. Membrane potentials were not corrected for junction potentials that arise between the pipette and bath solution. For Kv1.5 current recordings, a holding potential of −80 mV was used. Data were sampled at 10-20 kHz and filtered at 5 to 10 kHz. To assess drug block, half-log escalating concentrations of drug were added to the flowing bath solution and current traces were recorded with 400 ms depolarizing pulses to +60 mV at a frequency of 0.1 Hz.
# f=[D]/([D]+Kd*e^−δzFE/RT)
# where F, R, z and T have their usual meanings, δ represents the fractional electrical distance, i.e., the fraction of the transmembrane electrical field sensed by a single charge at the receptor site. […] The current amplitude (Idrug and Icontrol) was measured at the end of a 400 ms depolarization. […]
# [2] = molecular target: T2, Kv1.5 A501V mutant channel (Homo sapiens, UniProt P22460, A501V); experiment: Whole-cell patch-clamp block of mutant Kv1.5 current in HEK293 cells; format: cell-based
# T2 construct: subcloned as a fragment back into full-length Kv1.5; expressed in transfected cells; host or cells: HEK293, transient transfection
# Experimental: (§1) Stable lines of HEK293 cells expressing Kv1.5, or transient transfection of mutant Kv1.5 channels were used in all experiments. […] (Coralville, Iowa, USA), and mutants were generated using the Stratagene Quikchange kit (Stratagene, Calif., USA). […] This was added to the cells for overnight incubation after washing the media with 900 μl of MEM with 10% FBS. […] Media contained 10% bovine serum and 0.5 mg/ml geneticin for stable lines. On the day before recording, stably-expressing cells were washed with MEM, treated with trypsin/EGTA for one minute and plated on 25 mm^2 coverslips. All cell culture supplies were obtained from Invitrogen (Mississauga, ON, Canada). Control bath solution contained (in mM): 5 KCl, 135 NaCl, 2.8 sodium acetate, 1 MgCl2, 10 HEPES and 1 CaCl2, adjusted to pH 7.4 with NaOH. Patch pipettes contained (in mM): 130 KCl, 5 EGTA, 1 MgCl2, 10 HEPES, 4 Na2ATP, and 0.1 GTP, adjusted to pH 7.2 with KOH. All chemicals used to make solutions were obtained from Sigma-Aldrich (Mississauga, ON, Canada). […] (Vancouver, BC, Canada) and prepared as a stock solution (50 mM) in H2O. […] DMSO concentrations for either drug never exceeded 0.1% v/v in the final experimental solutions. Coverslips with adherent cells plated on the surface were placed in a superfusion chamber (volume 300 μl) containing the control bath solution at 22° C. Whole-cell current recording and analysis were carried out using an Axopatch 200B amplifier and pClamp10 software (Axon Instruments, CA, USA). Patch electrodes were pulled from thin-walled borosilicate glass (World Precision Instruments, FL, USA) on a horizontal micropipette puller (Sutter Instruments, CA, USA). […] Analogue capacity compensation and 80% series resistance compensation were used during whole cell measurements. Membrane potentials were not corrected for junction potentials that arise between the pipette and bath solution. […] Data were sampled at 10-20 kHz and filtered at 5 to 10 kHz. […] Data are represented as mean±SE unless otherwise specified. For significance of differences, * represents p<0.05, ** p<0.01; statistical analysis was conducted using Student's t-test (unpaired). Clampfit software (Axon Instruments, CA, USA) was used to analyze current traces. Data from each test pulse (currents in the presence of drug) were normalized to control test pulse currents obtained before drug exposure. […] IC50 is the concentration producing half-maximal inhibition; and n is the Hill coefficient.
# [3] = molecular target: T3, Kv1.5 C500A mutant channel (Homo sapiens, UniProt P22460, C500A); experiment: as above; format: cell-based
# T3 construct: subcloned as a fragment back into full-length Kv1.5; expressed in transfected cells; host or cells: HEK293, transient transfection
# Experimental: as §1
# [4] = molecular target: T4, Kv1.5 I508L mutant channel (Homo sapiens, UniProt P22460, I508L); experiment: as above; format: cell-based
# T4 construct: subcloned as a fragment back into full-length Kv1.5; expressed in transfected cells; host or cells: HEK293, transient transfection
# Experimental: as §1
# [5] = molecular target: T5, Kv1.5 I508Y mutant channel (Homo sapiens, UniProt P22460, I508Y); experiment: as above; format: cell-based
# T5 construct: subcloned as a fragment back into full-length Kv1.5; expressed in transfected cells; host or cells: HEK293, transient transfection
# Experimental: as §1
# [6] = molecular target: T6, Kv1.5 P532L mutant channel (Homo sapiens, UniProt P22460, P532L); experiment: as above; format: cell-based
# T6 construct: subcloned as a fragment back into full-length Kv1.5; expressed in transfected cells; host or cells: HEK293, transient transfection
# Experimental: as §1
# [7] = molecular target: T7, Kv1.5 T479S mutant channel (Homo sapiens, UniProt P22460, T479S); experiment: as above; format: cell-based
# T7 construct: subcloned as a fragment back into full-length Kv1.5; expressed in transfected cells; host or cells: HEK293, transient transfection
# Experimental: as §1
# [8] = molecular target: T8, Kv1.5 T480A mutant channel (Homo sapiens, UniProt P22460, T480A); experiment: as above; format: cell-based
# T8 construct: subcloned as a fragment back into full-length Kv1.5; expressed in transfected cells; host or cells: HEK293, transient transfection
# Experimental: as §1
# [9] = molecular target: T9, Kv1.5 T480S mutant channel (Homo sapiens, UniProt P22460, T480S); experiment: as above; format: cell-based
# T9 construct: subcloned as a fragment back into full-length Kv1.5; expressed in transfected cells; host or cells: HEK293, transient transfection
# Experimental: as §1
# [10] = molecular target: T10, Kv1.5 V505L mutant channel (Homo sapiens, UniProt P22460, V505L); experiment: as above; format: cell-based
# T10 construct: subcloned as a fragment back into full-length Kv1.5; expressed in transfected cells; host or cells: HEK293, transient transfection
# Experimental: as §1
# IKs (KvLQT1) = IKs (KvLQT1) (Homo sapiens, UniProt P51787); experiment: Sensitivity of IKs channel to vernakalant (unpublished data)
# atrial fibrillation = settings: intravenous; within 90 min of infusion; phase II and III trials; cited from earlier work
# T2 sequence (P22460 whole entry A501V, the tested form may be a part): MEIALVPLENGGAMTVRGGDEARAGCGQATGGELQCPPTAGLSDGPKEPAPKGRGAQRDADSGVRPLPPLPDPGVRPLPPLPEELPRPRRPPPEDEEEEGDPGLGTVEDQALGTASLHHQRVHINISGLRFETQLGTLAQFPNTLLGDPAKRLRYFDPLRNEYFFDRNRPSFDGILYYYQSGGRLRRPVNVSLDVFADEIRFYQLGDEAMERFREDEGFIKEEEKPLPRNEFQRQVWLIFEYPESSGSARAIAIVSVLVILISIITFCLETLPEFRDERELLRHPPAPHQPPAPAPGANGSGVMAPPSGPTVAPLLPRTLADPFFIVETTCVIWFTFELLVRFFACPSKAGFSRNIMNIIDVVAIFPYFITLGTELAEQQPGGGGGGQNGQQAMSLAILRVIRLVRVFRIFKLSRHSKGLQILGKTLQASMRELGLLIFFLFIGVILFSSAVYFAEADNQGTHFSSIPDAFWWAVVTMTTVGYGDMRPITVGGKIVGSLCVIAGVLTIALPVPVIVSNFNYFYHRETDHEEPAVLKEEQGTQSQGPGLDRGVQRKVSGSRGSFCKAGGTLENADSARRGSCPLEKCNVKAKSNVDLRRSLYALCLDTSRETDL
# T9 sequence (P22460 whole entry T480S, the tested form may be a part): as the sequence (P22460 whole entry A501V, the tested form may be a part) above, with T480S, V501A counted along it
# T8 sequence (P22460 whole entry T480A, the tested form may be a part): as the sequence (P22460 whole entry A501V, the tested form may be a part) above, with T480A, V501A counted along it
# T10 sequence (P22460 whole entry V505L, the tested form may be a part): as the sequence (P22460 whole entry A501V, the tested form may be a part) above, with V501A, V505L counted along it
# T6 sequence (P22460 whole entry P532L, the tested form may be a part): as the sequence (P22460 whole entry A501V, the tested form may be a part) above, with V501A, P532L counted along it
# T7 sequence (P22460 whole entry T479S, the tested form may be a part): as the sequence (P22460 whole entry A501V, the tested form may be a part) above, with T479S, V501A counted along it
# T3 sequence (P22460 whole entry C500A, the tested form may be a part): as the sequence (P22460 whole entry A501V, the tested form may be a part) above, with C500A, V501A counted along it
# T5 sequence (P22460 whole entry I508Y, the tested form may be a part): as the sequence (P22460 whole entry A501V, the tested form may be a part) above, with V501A, I508Y counted along it
# T4 sequence (P22460 whole entry I508L, the tested form may be a part): as the sequence (P22460 whole entry A501V, the tested form may be a part) above, with V501A, I508L counted along it
# T1 sequence (P22460 whole entry V505A, the tested form may be a part): as the sequence (P22460 whole entry A501V, the tested form may be a part) above, with V501A, V505A counted along it
# Chain of IKs (KvLQT1) (P51787 whole entry, the tested form may be a part): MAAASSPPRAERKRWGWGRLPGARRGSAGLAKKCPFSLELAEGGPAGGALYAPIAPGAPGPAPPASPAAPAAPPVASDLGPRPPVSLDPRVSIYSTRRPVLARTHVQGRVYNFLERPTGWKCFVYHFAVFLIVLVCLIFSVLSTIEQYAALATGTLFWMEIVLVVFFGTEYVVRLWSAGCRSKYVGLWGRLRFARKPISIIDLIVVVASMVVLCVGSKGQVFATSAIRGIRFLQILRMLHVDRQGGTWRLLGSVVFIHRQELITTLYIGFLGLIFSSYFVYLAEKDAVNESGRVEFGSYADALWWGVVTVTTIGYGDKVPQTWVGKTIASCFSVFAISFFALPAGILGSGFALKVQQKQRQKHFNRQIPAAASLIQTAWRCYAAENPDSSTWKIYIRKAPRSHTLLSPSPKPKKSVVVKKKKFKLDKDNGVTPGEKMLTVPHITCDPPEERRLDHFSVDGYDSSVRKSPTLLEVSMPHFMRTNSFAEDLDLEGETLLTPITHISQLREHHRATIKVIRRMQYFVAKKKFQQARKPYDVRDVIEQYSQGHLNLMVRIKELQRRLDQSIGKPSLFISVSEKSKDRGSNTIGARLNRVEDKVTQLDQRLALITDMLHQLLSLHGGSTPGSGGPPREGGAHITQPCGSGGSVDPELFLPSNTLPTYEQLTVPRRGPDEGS
smiles,measurement,setting,value
O=C(NCC1CCCCN1)c1cc(OCC(F)(F)F)ccc1OCC(F)(F)F (stereo not drawn) [Flecainide],change in electrical distance versus WT,[1],significant increase in distance
"COc1ccc(CCO[C@@H]2CCCC[C@H]2N2CC[C@@H](O)C2)cc1OC [Vernakalant, 3-Pyrrolidinol, 1-[(1R,2R)-2-[2-(3,4-dimethoxyphenyl)ethoxy]cyclohexyl]-,hydrochloride, (3R)]",Hill coefficient,[2],0.85
same,Fractional Block ± SEM,[2]; 10 μM vernakalant,0.69 ± 0.04
same,Hill coefficient,[3],0.95
same,Fractional Block ± SEM,[3]; 10 μM vernakalant,0.21 ± 0.04
same,Hill coefficient,[4],1.00
same,Fractional Block ± SEM,[4]; 10 μM vernakalant,0.38 ± 0.05
same,Hill coefficient,[5],1.46
same,Fractional Block ± SEM,[5]; 10 μM vernakalant,0.21 ± 0.03
same,Hill coefficient,[6],0.96
same,Fractional Block ± SEM,[6]; 10 μM vernakalant,0.26 ± 0.03
same,Hill coefficient,[7],0.95
same,Fractional Block ± SEM,[7]; 10 μM vernakalant,0.23 ± 0.04
same,Hill coefficient,[8],0.88
same,Fractional Block ± SEM,[8]; 10 μM vernakalant,0.23 ± 0.04
same,Hill coefficient,[9],0.64
same,Fractional Block ± SEM,[9]; 10 μM vernakalant,0.25 ± 0.07
same,Hill coefficient,[10],0.77
same,Fractional Block ± SEM,[10]; 10 μM vernakalant,0.22 ± 0.07
same,sensitivity of IKs channel to drug,IKs (KvLQT1),not sensitive
same,overall rate of conversion of AF to sinus rhythm,atrial fibrillation,~52%
